Publication PMC7101422, “N-Phenethyl Substitution in 14-Methoxy-N-methylmorphinan-6-ones Turns Selective µ Opioid Receptor Ligands into Dual µ/δ Opioid Receptor Agonists” (Scientific Reports, 2020)
Read-outs that look alike come from different tables or passages of the source. Marks after values point to notes of the source that are not given here.

Columns and labels:
[1] = biological target: T1, human δOR (Homo sapiens, UniProt P41143); assay: [35S]GTPγS binding assay, CHO-hδOR membranes; type: biochemical; details: for δOR % stim. / fold higher δOR agonist potency vs. N-methyl counterpart: [35S]GTPγS binding; for δOR % stim.: relative to DPDPE; for fold higher δOR agonist potency vs. N-methyl counterpart: vs. 14-OMO (3) and 14-MM (4)
T1 construct: host or cells: CHO cells (CHO-hδOR; CHO-hδOR-p22F for the cAMP assay)

[2] = test system: mice; assay: Radiant heat tail-flick test in mice; type: in vivo; details: Mus musculus, sc, 0.5 h, s.c., at 30 min (peak effect), n = 5–6 mice per group, read-out: ED50 (95% CL)
[3] = biological target: T2, human κOR (Homo sapiens, UniProt P41145); assay: [35S]GTPγS binding assay, CHO-hκOR membranes; type: biochemical; details: for κOR % stim.: [35S]GTPγS binding, relative to U69,593
T2 construct: host or cells: CHO cells (CHO-hκOR)

[4] = biological target: T1, human δOR; assay: Competition binding assay, CHO-hδOR cell membranes ([3H]Diprenorphine)
[5] = biological target: T1, human δOR; assay: Forskolin-induced cAMP accumulation assay, CHO-hδOR-p22F cells; type: cell-based; details: for Emax: read-out: δOR % stim.
[6] = biological target: T3, human µOR (Homo sapiens, UniProt P35372); assay: biochemical; type: binding
T3 construct: host or cells: CHO cells (CHO-hµOR; CHO-hµOR-p22F for the cAMP assay)

[7] = biological target: T2, human κOR; assay: biochemical; type: binding
[8] = biological target: T3, human µOR; assay: [35S]GTPγS binding assay, CHO-hµOR membranes; type: biochemical; details: for µOR % stim.: [35S]GTPγS binding, relative to DAMGO
[9] = biological target: T3, human µOR; assay: cell-based; type: cell-based; details: for Emax: read-out: µOR % stim.
[10] = test system: mice; assay: Rotarod assay in mice; type: in vivo; details: 30 min after s.c. administration, doses equivalent to a 3- to 4-fold the antinociceptive ED50 dose
[11] = test system: mice; details: s.c., cited from earlier work; for ED50 (95% CL): tail-flick, at 30 min (peak effect)
[12] = biological target: T1, human δOR; details: [35S]GTPγS binding; relative to DPDPE; cited from earlier work
[13] = biological target: T2, human κOR; details: cited from earlier work
[14] = test system: mice; details: hot-plate test, s.c.; cited from earlier work
[15] = biological target: T3, human µOR; details: cited from earlier work

T1 sequence (P41143 whole entry): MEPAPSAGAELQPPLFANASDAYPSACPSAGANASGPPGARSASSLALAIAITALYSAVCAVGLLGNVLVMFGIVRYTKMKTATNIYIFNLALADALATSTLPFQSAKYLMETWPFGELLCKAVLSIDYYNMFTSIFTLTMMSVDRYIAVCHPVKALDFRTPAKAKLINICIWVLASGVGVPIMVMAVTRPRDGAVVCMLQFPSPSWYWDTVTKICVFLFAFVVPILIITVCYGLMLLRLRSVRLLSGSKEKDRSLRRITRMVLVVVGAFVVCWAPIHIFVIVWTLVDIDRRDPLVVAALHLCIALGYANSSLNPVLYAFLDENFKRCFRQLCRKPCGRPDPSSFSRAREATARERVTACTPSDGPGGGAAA
T3 sequence (P35372 whole entry): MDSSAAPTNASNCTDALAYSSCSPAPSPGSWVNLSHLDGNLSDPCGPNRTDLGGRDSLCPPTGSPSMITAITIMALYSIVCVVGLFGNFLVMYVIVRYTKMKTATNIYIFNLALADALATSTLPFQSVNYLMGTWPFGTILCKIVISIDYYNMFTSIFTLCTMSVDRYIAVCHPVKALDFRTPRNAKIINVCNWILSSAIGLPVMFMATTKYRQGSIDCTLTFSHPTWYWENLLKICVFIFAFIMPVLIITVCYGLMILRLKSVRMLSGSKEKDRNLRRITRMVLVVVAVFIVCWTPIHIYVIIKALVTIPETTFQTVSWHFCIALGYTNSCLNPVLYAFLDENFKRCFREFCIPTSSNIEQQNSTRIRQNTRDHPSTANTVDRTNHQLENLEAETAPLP
T2 sequence (P41145 whole entry): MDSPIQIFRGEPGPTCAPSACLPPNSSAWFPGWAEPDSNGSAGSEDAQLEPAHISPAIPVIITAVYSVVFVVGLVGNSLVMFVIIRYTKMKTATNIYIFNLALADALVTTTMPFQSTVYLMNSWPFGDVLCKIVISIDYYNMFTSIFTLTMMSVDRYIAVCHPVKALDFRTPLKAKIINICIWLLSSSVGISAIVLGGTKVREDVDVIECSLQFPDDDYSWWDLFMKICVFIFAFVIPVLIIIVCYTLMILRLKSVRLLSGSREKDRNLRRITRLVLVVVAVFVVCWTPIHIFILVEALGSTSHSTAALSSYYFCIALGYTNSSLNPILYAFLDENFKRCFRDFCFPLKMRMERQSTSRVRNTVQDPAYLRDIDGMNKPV

CO[C@@]12CCC(=O)[C@@H]3Oc4c(O)ccc5c4[C@@]31CCN(C)[C@@H]2C5 [14-OMO (3), 14-O-methyloxymorphone, reference compound]
EC50 [1]: 38.5 ± 6.9 nM | δOR % stim. [1]: 102 ± 4% | ED50 [2]: 0.014 mg/kg | EC50 [3]: 135 ± 29 nM | κOR % stim. [3]: 65.9 ± 6.5% | Ki [4]: 9.08 ± 0.31 nM | EC50 [5]: 5.42 ± 0.93 nM | Emax [5]: 98 ± 3% | Ki [6]: 0.27 ± 0.09 nM | Ki ratio δOR/µOR [6]: 34 | Ki ratio κOR/µOR [6]: 38 | Ki [7]: 10.3 ± 1.8 nM | EC50 [8]: 1.21 ± 0.48 nM | µOR % stim. [8]: 95 ± 5% | EC50 [9]: 0.19 ± 0.14 nM | Emax [9]: 90 ± 8%

CN1CC[C@]23c4c5ccc(O)c4O[C@H]2[C@@H](O)C=C[C@H]3[C@H]1C5 [Morphine (1), Morphine, reference compound]
effect on motor coordination (rotarod performance) [10]: caused a significant deficit in rotarod performance

CO[C@@]12CCC(=O)[C@]3(C)Oc4c(O)ccc5c4[C@@]31CCN(C)[C@@H]2C5 [14-MM (4), 14-methoxymetopon, reference compound]
EC50 [1]: 36.8 ± 12.4 nM | δOR % stim. [1]: 100 ± 9% | ED50 [2]: 0.024 mg/kg | EC50 [3]: 181 ± 9 nM | κOR % stim. [3]: 68.9 ± 9.2% | Ki [4]: 18.6 ± 0.98 nM | EC50 [5]: 4.06 ± 0.89 nM | Emax [5]: 99 ± 8% | Ki ratio δOR/µOR [6]: 74 | Ki ratio κOR/µOR [6]: 51 | Ki ([6]; read-out: Ki µOR): 0.25 ± 0.04 nM | Ki [7]: 12.8 ± 1.5 nM | EC50 [8]: 2.66 ± 0.58 nM | µOR % stim. [8]: 99 ± 5% | EC50 [9]: 0.31 ± 0.07 nM | Emax [9]: 93 ± 5%

CN1CC[C@]23c4c5ccc(O)c4O[C@H]2C(=O)CC[C@@]3(O)[C@H]1C5 [Oxymorphone (2), oxymorphone, reference compound]
effect on motor coordination (rotarod performance) [10]: caused a significant deficit in rotarod performance | ED50 (95% CL) [11]: 0.35 (0.16–0.77)^b mg/kg

O=C1CC[C@@]2(O)[C@H]3Cc4ccc(O)c5c4[C@@]2(CCN3CCc2ccccc2)[C@H]1O5 [Compound 2a]
effect on motor coordination (rotarod performance) [10]: did not affect the evoked locomotor activity of mice | ED50 (95% CL) [11]: 0.15 (0.058–0.40)^b mg/kg

CO[C@@]12CCC(=O)[C@]3(C)Oc4c(O)ccc5c4[C@@]31CCN(CCc1ccccc1)[C@@H]2C5 [Compound 4a, 4,5α-Epoxy-3-hydroxy-14-methoxy-5-methyl-N-phenethylmorphinan-6-one]
EC50 [1]: 9.54 ± 2.33 nM | δOR % stim. [1]: 103 ± 2% | fold higher δOR agonist potency vs. N-methyl counterpart [1]: 4 fold | effect on motor coordination (rotarod performance) [10]: lack of the mixed µ/δOR agonists 3a and 4a to induce motor dysfunction | ED50 [2]: 0.024 mg/kg | EC50 [3]: 334 ± 114 nM | κOR % stim. [3]: 51.3 ± 10.4% | melting point: 179 to 180 °C | Ki [4]: 1.45 ± 0.31 nM | EC50 [5]: 0.55 ± 0.16 nM | Emax [5]: 96 ± 4% | Ki [6]: 0.24 ± 0.03 nM | Ki ratio δOR/µOR [6]: 6.0 | Ki ratio κOR/µOR [6]: 147 | Ki [7]: 35.3 ± 5.5 nM | fold decrease in κOR affinity vs. N-methyl parent [7]: ca. 3 fold | EC50 [8]: 1.86 ± 0.84 nM | µOR % stim. [8]: 102 ± 13% | EC50 [9]: 0.15 ± 0.07 nM | Emax [9]: 98 ± 12%

Oc1ccc2c3c1O[C@H]1[C@@H](O)C=C[C@H]4[C@@H](C2)N(CCc2ccccc2)CC[C@@]341 [Compound 1a]
δOR % stim. [12]: 138 ± 17^b % | effect on motor coordination (rotarod performance) [10]: did not affect the evoked locomotor activity of mice | Ki [4]: 24.5 ± 8.7 nM | EC50 [5]: 315 ± 110 nM | Emax [5]: 105 ± 8% | Ki [6]: 0.25 ± 0.09 nM | Ki ratio δOR/µOR [6]: 98 | Ki ratio κOR/µOR [6]: 374 | fold increased affinity at the human µOR vs. N-methyl parent [6]: ca. 13 fold | κOR % stim. [13]: 19 ± 2^b*** % | fold higher antinociceptive potency vs. N-methyl parent ([11]; tail-flick test): 28 fold | ED50 (95% CL) [11]: 0.11 (0.027–0.40)^b mg/kg | fold more effective than morphine (antinociception) [14]: 22 fold | fold increase in µOR agonist potency vs. N-methyl parent [15]: 2- to 3 fold | µOR % stim. [15]: 113 ± 8^b % | Ki [7]: 93.5 ± 2.9 nM | EC50 [9]: 2.87 ± 0.91 nM | fold enhanced µOR agonist potency vs. N-methyl parent [9]: 4- to 5 fold | Emax [9]: 107 ± 5%

CO[C@@]12CCC(=O)[C@@H]3Oc4c(O)ccc5c4[C@@]31CCN(CCc1ccccc1)[C@@H]2C5 [Compound 3a, 4,5α-Epoxy-3-hydroxy-14-methoxy-N-phenethylmorphinan-6-one]
EC50 [1]: 9.34 ± 0.6 nM | δOR % stim. [1]: 107 ± 5% | fold higher δOR agonist potency vs. N-methyl counterpart [1]: 4 fold | effect on motor coordination (rotarod performance) [10]: lack of the mixed µ/δOR agonists 3a and 4a to induce motor dysfunction | ED50 [2]: 0.014 mg/kg | EC50 [3]: 144 ± 9 nM | κOR % stim. [3]: 35.4 ± 7.5 % | melting point: 180 to 182 °C | Ki [4]: 1.81 ± 0.68 nM | EC50 [5]: 0.6 ± 0.07 nM | Emax [5]: 93 ± 2% | Ki [6]: 0.19 ± 0.02 nM | Ki ratio δOR/µOR [6]: 9.5 | Ki ratio κOR/µOR [6]: 83 | Ki [7]: 15.8 ± 8.8 nM | EC50 [8]: 1.26 ± 0.63 nM | µOR % stim. [8]: 98 ± 10% | EC50 [9]: 0.078 ± 0.004 nM | Emax [9]: 88 ± 12%
